Laboratory results from patent publication US6120997A, “Nucleic acid binders having an hydroxyamine motif” (The Scripps Research Institute, priority 1998, dated 2000).

Legend:
AS-wt = test: SPR binding of aminoglycosides to decoding region A-site model AS-wt; design: species or system E. coli; conditions: for specificity for AS-wt over negative controls (in words): Example 5, HBS-buffer
Experimental: The RNA binding properties of 100-800 were analyzed using a surface plasmon resonance based assay that was recently developed in these laboratories. This assay allows the determination of both affinity and specificity of small molecule-RNA interactions. For the analysis, the compounds were injected over a matrix containing RNA that was immobilized through a biotin tag and the equilibrium binding values were recorded at various concentrations.
Non-linear curve fitting was then used to determine the values of the dissociation constants (KD). The specificity of binding, i.e. the ability to discriminate between different RNA sequences was evaluated by comparing the binding to the target sequence (AS-wt) and the negative control (AS-U1495A). The ratio of KD(AS-U1495A) to KD(AS-wt) was taken to be a representation of the specificity of the binding event.
(§1) For the quantitative measurement of aminoglycoside binding to these sequences, we utilized our recently developed SPR-based assay. Biotinylated derivatives of all sequences were prepared by in vitro transcription in the presence of guanosine 5'-monophosphorothioate followed by alkylation with a biotin iodoacetamide derivative. The RNA conjugates were then immobilized onto streptavidin coated SPR-sensorchips for analysis.
(§2) In the same manner as illustrated for paromomycin, a panel of aminoglycosides was screened and the results are compiled in the table of FIGS. 46 and 47. In addition to the naturally occuring aminoglycoside antibiotics, some of the compounds in FIG. 46 are synthetically derived, unnatural aminoglycosides. The number of independent determinations for each dissociation constant ranged from 1-3. […] All data were recorded under near physiological salt conditions (HBS-buffer: 150 mM NaCl, 10 mM HEPES, pH7.4, 3.4 mM EDTA) unless noted otherwise. Data points were taken at concentrations ranging from […]. Below this concentration range, surface transport limitations prevent the attainment of equilibrium.
Plasmon resonance and antimicrobial testing for Example 4. Synthesis of the biotinylated RNA and surface plasmon resonance detected binding experiments were performed as described vida supra. Solution conditions: 150 mM NaCl, 10 mM HEPES (pH 7.4), 3.4 mM EDTA. KD determination from the binding curves.
The fitting routine of the program kaleidagraph was used for all calculations. The starting values for a and b were set to 1 and 0 respectively. The number of KD values used in the fitting was adjusted depending on the observed range of equivalents bound but generally varied from 3 to 4.
General Procedures for SPR Binding Studies done in Example 5. Samples were prepared by serial dilutions from stock solutions in RNase free microfuge tubes (Ambion) and were centrifuged at 14000 rpm for degassing. Unless otherwise noted, all binding studies were carried out using HBS buffer (Pharmacia Biosensor AB) which was used as obtained. All procedures for binding studies were automated as methods using repetitive cycles of sample injection and regeneration. Typically, buffer was injected in the first two cycles to establish a stable baseline value. Samples were injected at a flowrate of […] using either the KINJECT command. All aminoglycoside samples were injected from autoclaved 7 mm plastic vials that were capped with pierceable plastic crimp caps. To minimize carry over, samples were injected in order of increasing concentration. The running buffer was identical to the injection buffer. Expected values for the equilibrium response of one equivalent of analyte were calculated from the relative molecular weight of the analyte and the immobilized RNA ligand in each flowcells and adjusted with a correction factor of 0.76 which arises from the different molar refractive indices of RNA and the analyte. […]

Neo16-bd = test: SPR binding of aminoglycosides to Neo16-bd aptamer
Experimental: Conditions: 10 mM HEPES (pH 7.4), 0.1 mM EDTA and NaCl as indicated.
The binding of aminoglycosides to RNA is likely to involve substantial ionic contributions and therefore should be strongly influenced by competing buffer ions. […] We studied the salt dependence of neomycin B binding to RBE3, RBE3-neg and Neo16-bd (FIG. 14) by varying the concentration of NaCl included in the injection buffer (10 mM HEPES, pH 7.4, 0.1 mM EDTA). […] This neomycin binding motif was obtained by in vitro selection under conditions of high ionic strength.
To further improve our understanding of specific aminoglycoside recognition, we have also included an artificial aminoglycoside receptor that was evolved in vitro to recognize an aminoglycoside. A number of RNA aptamers for small molecules have been reported in recent years. Among them are aptamers that recognize the aminoglycosides tobramycin, lividomycin and kanamycin.
For comparison, the corresponding values for AS-wt are also included.
General Procedures for SPR Binding Studies done in Example 5. Samples were prepared by serial dilutions from stock solutions in RNase free microfuge tubes (Ambion) and were centrifuged at 14000 rpm for degassing. Unless otherwise noted, all binding studies were carried out using HBS buffer (Pharmacia Biosensor AB) which was used as obtained. All procedures for binding studies were automated as methods using repetitive cycles of sample injection and regeneration. Typically, buffer was injected in the first two cycles to establish a stable baseline value. Samples were injected at a flowrate of […] using either the KINJECT command. All aminoglycoside samples were injected from autoclaved 7 mm plastic vials that were capped with pierceable plastic crimp caps. To minimize carry over, samples were injected in order of increasing concentration. The running buffer was identical to the injection buffer.

AS-U1406A = test: SPR binding of aminoglycosides to AS-U1406A; conditions: Example 5, HBS-buffer
Description: To understand the specificity of ribosomal RNA recognition by the various aminoglycosides, we decided to investigate their binding to AS-wt and compare the results to a series of control mutants which have likewise been characterized by footprinting (FIG. 44). These include the negative controls AS-U1495A, AS-DA1492 and AS-res. […] In AS-U1495A a critical hydrogen bond acceptor which interacts with N1 of the 2-deoxystreptamine ring has been removed. The mutation DA1492 destroys the bulged pocket in which paromomycin ring II (the glucose ring) is positioned. Finally, in the AS-res mutant the G1491:C1409 base pair which creates the floor of the binding pocket is disrupted by replacing it with a C1491:U1409 mismatch. Breaking up this critical base pair in the E. coli 16S ribosomal RNA causes resistance to a broad range of aminoglycosides. In contrast to these negative controls, the mutant hairpin AS-U1406A still contains all necessary elements for specific aminoglycoside recognition and binds paromomycin with wild type specificity.
as §1, §2
General Procedures for SPR Binding Studies done in Example 5. Samples were prepared by serial dilutions from stock solutions in RNase free microfuge tubes (Ambion) and were centrifuged at 14000 rpm for degassing. Unless otherwise noted, all binding studies were carried out using HBS buffer (Pharmacia Biosensor AB) which was used as obtained. All procedures for binding studies were automated as methods using repetitive cycles of sample injection and regeneration. Typically, buffer was injected in the first two cycles to establish a stable baseline value. Samples were injected at a flowrate of […] using either the KINJECT command. All aminoglycoside samples were injected from autoclaved 7 mm plastic vials that were capped with pierceable plastic crimp caps. To minimize carry over, samples were injected in order of increasing concentration. The running buffer was identical to the injection buffer. Expected values for the equilibrium response of one equivalent of analyte were calculated from the relative molecular weight of the analyte and the immobilized RNA ligand in each flowcells and adjusted with a correction factor of 0.76 which arises from the different molar refractive indices of RNA and the analyte. Binding constants were calculated by fitting the recorded binding isotherm (equivalents bound vs, concentration) to a model with n independent binding constants using the fitting program provided in the program Kaleidagraph (Macintosh).

Row | Compound | specificity for AS-wt over negative controls (in words) (AS-wt) | binding to AS-U1406A mutant relative to AS-wt (in words) (AS-U1406A) | also measured
1 | CN[C@@H]1[C@@H](O[C@H]2O[C@H](CO)[C@@H](N)[C@H](O)[C@H]2O)OC2C[C@@H](N)[C@@H](O[C@H]3[C@H](O)[C@@H](O)[C@H](N)C[C@@H]3N)OC2[C@@H]1O (some centres unmarked) [Apramycin] | only marginal if any specificity for AS-wt |  | 
2 | NC[C@H]1O[C@H](O[C@H]2[C@H](O[C@@H]3O[C@H](CO)[C@@H](O[C@H]4O[C@@H](CO)[C@@H](O)[C@H](O)[C@H]4O)[C@H]3O)[C@@H](O)[C@H](N)C[C@@H]2N)[C@H](N)[C@@H](O)[C@@H]1O [Compound 700, 2"',6"'-desamino-2"'-6"'-hydroxy neomycin B] |  |  | RNA binding, affinity or specificity for AS-wt (in words) (AS-wt; Example 4): virtually the same RNA binding profile
3 | NC[C@@H]1O[C@H](O[C@H]2[C@@H](O)[C@H](O[C@@H]3[C@@H](O)[C@H](N)C[C@H](N)[C@H]3O[C@H]3O[C@H](CN)[C@@H](O)[C@H](O)[C@H]3N)O[C@@H]2CO)[C@H](O)[C@@H](O)[C@@H]1O [Compound 800, 2"'-desamino-2"'-hydroxy neomycin B] |  |  | affinity improvement for AS-wt in relation to 700 (AS-wt): 40 fold; Kd (Neo16-bd; HBS-buffer, read-out: Kd, Neo16bd): < 10 nM
4 | CN[C@H]1C[C@@H](N)[C@H](O)[C@@H](O[C@@H]2O[C@H](CO)[C@H](O)[C@@H]3OC4(O[C@H]23)O[C@H]([C@@H](N)CO)[C@H](O)[C@H](O)[C@H]4O)[C@@H]1O (some centres unmarked) [Hygromycin B] | none |  | 
5 | NCC1OC(OC2C(N)CC(N)C(OC3OC(CO)C(O)C(N)C3O)C2O)C(O)C(O)C1O (centres unmarked) [Kanamycin A] | only very moderate specificity for AS-wt | not increased in the U1406A mutant relative to AS-wt but rather decreased | 
6 | NC[C@H]1O[C@H](O[C@H]2[C@H](O)[C@@H](O[C@H]3O[C@H](CO)[C@@H](O)[C@H](N)[C@H]3O)[C@H](N)C[C@@H]2N)[C@H](N)[C@@H](O)[C@@H]1O [Kanamycin B] | only very moderate specificity for AS-wt | not increased in the U1406A mutant relative to AS-wt but rather decreased | 
7 | N[C@H]1[C@@H](O[C@H]2[C@H](O)[C@@H](O)[C@H](N)C[C@@H]2N)O[C@H](CO)[C@@H](O)[C@@H]1O [Paromamine] | substantial decrease in binding to AS-wt and a loss of most specificity |  | 
8 | NC[C@H]1O[C@H](O[C@H]2[C@H](O[C@@H]3O[C@H](CO)[C@@H](O)[C@H]3O)[C@@H](O)[C@H](N)C[C@@H]2N)[C@H](N)[C@@H](O)[C@@H]1O [Ribostamycin] | low | only weakly enhanced | lower affinity for AS-wt relative to neamine (AS-wt): 3 fold; binding to Neo16bd (in words) (Neo16-bd): bound more tightly to the aptamer than paromomycin
9 | NC[C@H]1O[C@H](O[C@H]2[C@H](O)[C@@H](O[C@H]3O[C@H](CO)[C@@H](O)[C@H](N)[C@H]3O)[C@H](N)C[C@@H]2N)[C@H](N)C[C@@H]1O [Tobramycin] | only very moderate specificity for AS-wt | not increased in the U1406A mutant relative to AS-wt but rather decreased | 
10 | Butirosin | only moderate specificity for AS-wt | significantly enhanced | 
11 | Gentamycin | only very moderate specificity for AS-wt | not increased in the U1406A mutant relative to AS-wt but rather decreased | 
